Source: US20240277698A1, “METHODS OF USING ALDOSTERONE SYNTHASE INHIBITORS” (CINCOR PHARMA, INC., priority 2021, published 2024)

What was measured:
[1] = MAD study: safety (adverse events, vital signs, ECG, laboratory values, body weight); assay type: in vivo, human; settings: for tolerability: once daily for 10 days
Description: Safety was assessed throughout the study based on AEs, physical examinations, weight measurements, electrocardiograms (ECGs), orthostatic vital sign assessments, and clinical laboratory evaluations. In order to thoroughly assess any potential effect of (R)-compound 1 on QT interval, continuous ECG recordings were also performed, starting approximately 1 hour before dosing, and continuing for approximately 24 hours after dosing on Days 1 and 10.
Safety is assessed throughout the study based on AEs, physical examinations, weight measurements, ECGs, vital sign (including orthostatic) assessments, and clinical laboratory evaluations. In order to thoroughly assess any potential effect of (R)-compound 1 on QT interval, continuous ECG recordings were also performed starting approximately 1 hour before dosing and continuing for approximately 24 hours after dosing on Days 1 and 10. If cardiodynamic analyses are undertaken, 12-lead ECGs will be extracted at predefined time points paired with PK samples.

[2] = Renal impairment study, single 10 mg dose: safety; assay type: in vivo
Excerpt: One subject with end stage disease experienced an unrelated SAE of metabolic encephalopathy and a moderate unrelated adverse event (AE) of tremor. One control subject experienced a mild AE of diarrhea, which was considered to be related to study drug by the Investigator. […] It is not necessary to dose adjust (R)-compound 1 for patients with renal impairment.
Overall, there were no deaths, 1 (3.0%) subject experienced an SAE, and no subjects discontinued due to a TEAE. Overall, 2 (6.1%) subjects experienced a total of 3 TEAEs: 1 (10.0%) subject in the control group experienced a TEAE of mild diarrhea following administration of (R)-compound 1 that was considered related to the study drug; no subjects experienced a TEAE in the (R)-moderate to severe renal impairment group; and 1 (8.3%) subject in the kidney failure group experienced 2 TEAEs of moderate tremor and severe metabolic encephalopathy (recorded as an SAE) following administration of (R)-compound 1 that were considered not related to the study drug. The SAE was thought to be secondary to the concomitant medications. As such, there was no apparent increase in incidence or severity of AEs with decreased renal function. There were no AEs, trends, or clinically meaningful changes in laboratory parameters. There were no AEs or clinically significant changes observed in vital signs, physical examinations, or 12-lead ECGs.

[3] = 2.5 mg, normal salt diet, N = 6
[4] = all dose levels including placebo, treatment period
[5] = all subjects receiving (R)-compound 1

CCC(=O)N[C@@H]1CCCc2c(-c3ccc4c(c3)CCC(=O)N4C)cncc21 [(R)-Compound 1, (R)—N-(4-(1-methyl-2-oxo-1,2,3,4-tetrahydroquinolin-6-yl)-5,6,7,8-tetrahydroisoquinolin-8-yl)propionamide]
Subjects with any study drug-related TEAE [1, 3]: 2 (33.3) n (%) | Subjects with any study drug-related TEAE by maximum severity: Mild [1, 3]: 2 (33.3) n (%) | Subjects with any study drug-related TEAE by maximum severity: Moderate [1, 3]: 0 (0.0) n (%) | Subjects with any study drug-related TEAE by maximum severity: Severe [1, 3]: 0 (0.0) n (%) | Subjects with any study drug-related TEAE leading to discontinuation [1, 3]: 0 (0.0) n (%) | Subjects with any study drug-related treatment-emergent SAE [1, 3]: 0 (0.0) n (%) | Subjects with any treatment-emergent SAE [1, 3]: 0 (0.0) n (%) | Any TEAE, % of subjects ([1]; 5 mg LS, N = 9): (33.3) % | Any TEAE, number of subjects ([1]; 5 mg LS, N = 9): 3 | Related TEAE, % of subjects ([1]; 5 mg LS, N = 9): (11.1) % | Related TEAE, number of subjects ([1]; 5 mg LS, N = 9): 1 | Subjects with any AE ([1]; 5.0 mg, low salt diet, N = 9): 3 (33.3) n (%) | Subjects with any TEAE ([1]; 5.0 mg, low salt diet, N = 9): 3 (33.3) n (%) | Subjects with any TEAE by maximum severity: Mild ([1]; 5.0 mg, low salt diet, N = 9): 3 (33.3) n (%) | Subjects with any TEAE by maximum severity: Moderate ([1]; 5.0 mg, low salt diet, N = 9): 0 (0.0) n (%) | Subjects with any TEAE by maximum severity: Severe ([1]; 5.0 mg, low salt diet, N = 9): 0 (0.0) n (%) | Subjects with any TEAE leading to death ([1]; 5.0 mg, low salt diet, N = 9): 0 (0.0) n (%) | Subjects with any TEAE leading to discontinuation ([1]; 5.0 mg, low salt diet, N = 9): 0 (0.0) n (%) | Subjects with any study drug-related TEAE ([1]; 5.0 mg, low salt diet, N = 9): 1 (11.1) n (%) | Subjects with any study drug-related TEAE by maximum severity: Mild ([1]; 5.0 mg, low salt diet, N = 9): 1 (11.1) n (%) | Subjects with any study drug-related TEAE by maximum severity: Moderate ([1]; 5.0 mg, low salt diet, N = 9): 0 (0.0) n (%) | Subjects with any study drug-related TEAE by maximum severity: Severe ([1]; 5.0 mg, low salt diet, N = 9): 0 (0.0) n (%) | Subjects with any study drug-related TEAE leading to discontinuation ([1]; 5.0 mg, low salt diet, N = 9): 0 (0.0) n (%) | Subjects with any study drug-related treatment-emergent SAE ([1]; 5.0 mg, low salt diet, N = 9): 0 (0.0) n (%) | Subjects with any treatment-emergent SAE ([1]; 5.0 mg, low salt diet, N = 9): 0 (0.0) n (%) | Subjects with any AE ([1]; Overall (R)-compound 1, N = 42): 11 (26.2) n (%) | Subjects with any TEAE ([1]; Overall (R)-compound 1, N = 42): 11 (26.2) n (%) | Subjects with any TEAE by maximum severity: Mild ([1]; Overall (R)-compound 1, N = 42): 11 (26.2) n (%) | Subjects with any TEAE by maximum severity: Moderate ([1]; Overall (R)-compound 1, N = 42): 0 (0.0) n (%) | Subjects with any TEAE by maximum severity: Severe ([1]; Overall (R)-compound 1, N = 42): 0 (0.0) n (%) | Subjects with any TEAE leading to death ([1]; Overall (R)-compound 1, N = 42): 0 (0.0) n (%) | Subjects with any TEAE leading to discontinuation ([1]; Overall (R)-compound 1, N = 42): 0 (0.0) n (%) | Subjects with any study drug-related TEAE ([1]; Overall (R)-compound 1, N = 42): 6 (14.3) n (%) | Subjects with any study drug-related TEAE by maximum severity: Mild ([1]; Overall (R)-compound 1, N = 42): 6 (14.3) n (%) | Subjects with any study drug-related TEAE by maximum severity: Moderate ([1]; Overall (R)-compound 1, N = 42): 0 (0.0) n (%) | Subjects with any study drug-related TEAE by maximum severity: Severe ([1]; Overall (R)-compound 1, N = 42): 0 (0.0) n (%) | Subjects with any study drug-related TEAE leading to discontinuation ([1]; Overall (R)-compound 1, N = 42): 0 (0.0) n (%) | Subjects with any study drug-related treatment-emergent SAE ([1]; Overall (R)-compound 1, N = 42): 0 (0.0) n (%) | Subjects with any treatment-emergent SAE ([1]; Overall (R)-compound 1, N = 42): 0 (0.0) n (%) | Any TEAE, % of subjects ([1]; Total (R)-Compound 1, N = 42): (26.2) % | Any TEAE, number of subjects ([1]; Total (R)-Compound 1, N = 42): 11 | Related TEAE, % of subjects ([1]; Total (R)-Compound 1, N = 42): (14.3) % | Related TEAE, number of subjects ([1]; Total (R)-Compound 1, N = 42): 6 | decrease in mean BW from baseline [1, 4]: ≤ 2 kg | decrease in mean body mass index from baseline [1, 4]: < 0.65 kg/m^2 | subjects experiencing a TEAE [1, 5]: 11 (26.2%) | subjects experiencing a TEAE considered related to study drug [1, 5]: 6 (14.3%) | subjects experiencing dizziness [1, 5]: 2 (4.8%) | subjects experiencing headache [1, 5]: 4 (9.5%) | subjects experiencing postural dizziness [1, 5]: 3 (7.1%) | BP as compared to placebo ([1]; healthy subjects): no clinically significant changes | all other TEAEs (presyncope, eye irritation, abdominal pain, constipation, viral infection, rhinitis, back pain, anxiety, dry throat, dysphonia), subjects each ([1]; human, in vivo, oral, 10 days): 1 subject | reduction in glomerular filtration rate ([1]; mild): < 15% | plasma sodium and potassium levels ([1]; multiple doses): Mild, dose-dependent decreases in plasma sodium levels and increases in plasma potassium levels | tolerability ([1]; healthy subjects): safe and well tolerated | tolerability ([1]; healthy subjects, listed as (R)-compound 1): safe and well tolerated | decrease in mean BMI from baseline ([1]; overall (R)-compound 1 group): −0.442 kg/m^2 | decrease in mean body weight from baseline ([1]; overall (R)-compound 1 group): -1.31 kg | QTcF ([1]; up to 5 mg QD for 10 days): no meaningful changes | subjects experiencing a TEAE (mild diarrhea, related) ([2]; control group): 1 (10.0%) | subjects experiencing TEAEs (moderate tremor, severe metabolic encephalopathy, not related) ([2]; kidney failure group): 1 (8.3%) | subjects experiencing a TEAE ([2]; moderate to severe renal impairment group): no subjects | subjects experiencing TEAEs ([2]; overall, single 10 mg dose): 2 (6.1%) | subjects experiencing an SAE ([2]; overall, single 10 mg dose): 1 (3.0%) | tolerability ([2]; single 10 mg dose, varying degrees of renal function): well tolerated
